# Assay results as given in publication PMC6009898 (Journal of Enzyme Inhibition and Medicinal Chemistry, 2017).
# Where two headings read alike, the source gives them in different places.
# What was measured:
# Aβ (1–42) [1] = biological target: T1, Aβ (1–42) (Homo sapiens, UniProt P05067); assay: Inhibition of Cu^2+-induced Aβ (1–42) aggregation (ThT assay); type: biochemical; settings: Aβ 25 μM, compound 50 μM, Cu^2+ 25 μM, 37 °C, 24 h; read-out: Inhibition of Cu^2+-induced Aβ aggregation
# Experimental: The mixture of the peptide (10 μL, 25 μM, final concentration) with or without copper (10 μL, 25 μM, final concentration) and the test compound (10 μL, 50 μM, final concentration) were incubated at 37 °C for 24 h. The 20 μL of the sample was diluted to a final volume of 200 μL with […] glycine–NaOH buffer (pH 8.0) containing ThT (5 μM). The detection method was the same as that of self-induced Aβ aggregation experiment.
# [2] = biological target: T2, BuChE (from equine serum) (Equus caballus, UniProt P81908); assay: biochemical; type: biochemical; settings: for IC50: means ± SD of three experiments
# T2 construct: butyrylcholinesterase (BuChE, E.C. 3.1.1.8) from equine serum and human serum; purchased Sigma-Aldrich (St. Louis, MO); host or cells: equine serum
# T2 sequence (P81908 whole entry): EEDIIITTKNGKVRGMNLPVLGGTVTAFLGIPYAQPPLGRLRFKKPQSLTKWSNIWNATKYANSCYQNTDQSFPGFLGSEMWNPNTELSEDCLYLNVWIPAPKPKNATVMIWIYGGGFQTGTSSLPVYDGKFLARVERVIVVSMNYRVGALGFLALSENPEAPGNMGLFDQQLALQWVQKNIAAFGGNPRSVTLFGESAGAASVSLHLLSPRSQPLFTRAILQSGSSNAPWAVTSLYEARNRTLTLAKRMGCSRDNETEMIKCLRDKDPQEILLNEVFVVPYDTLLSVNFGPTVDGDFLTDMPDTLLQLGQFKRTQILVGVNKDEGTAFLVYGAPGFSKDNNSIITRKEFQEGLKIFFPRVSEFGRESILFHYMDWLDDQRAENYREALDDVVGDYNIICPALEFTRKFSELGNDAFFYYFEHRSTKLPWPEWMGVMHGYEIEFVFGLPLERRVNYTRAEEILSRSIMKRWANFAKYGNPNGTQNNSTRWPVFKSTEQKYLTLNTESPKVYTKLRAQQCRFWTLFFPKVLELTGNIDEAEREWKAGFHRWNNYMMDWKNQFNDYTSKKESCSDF
# AChE (from electric eel) = biological target: T3, AChE (from electric eel) (Electrophorus electricus, UniProt O42275); assay: biochemical; settings: means ± SD of three experiments; read-out: IC50 eeAChE
# T3 construct: Acetylcholinesterase (E.C. 3.1.1.7) from electric eel and human erythrocytes; purchased Sigma-Aldrich (St. Louis, MO); host or cells: electric eel (natural source)
# T3 sequence (O42275 24-633): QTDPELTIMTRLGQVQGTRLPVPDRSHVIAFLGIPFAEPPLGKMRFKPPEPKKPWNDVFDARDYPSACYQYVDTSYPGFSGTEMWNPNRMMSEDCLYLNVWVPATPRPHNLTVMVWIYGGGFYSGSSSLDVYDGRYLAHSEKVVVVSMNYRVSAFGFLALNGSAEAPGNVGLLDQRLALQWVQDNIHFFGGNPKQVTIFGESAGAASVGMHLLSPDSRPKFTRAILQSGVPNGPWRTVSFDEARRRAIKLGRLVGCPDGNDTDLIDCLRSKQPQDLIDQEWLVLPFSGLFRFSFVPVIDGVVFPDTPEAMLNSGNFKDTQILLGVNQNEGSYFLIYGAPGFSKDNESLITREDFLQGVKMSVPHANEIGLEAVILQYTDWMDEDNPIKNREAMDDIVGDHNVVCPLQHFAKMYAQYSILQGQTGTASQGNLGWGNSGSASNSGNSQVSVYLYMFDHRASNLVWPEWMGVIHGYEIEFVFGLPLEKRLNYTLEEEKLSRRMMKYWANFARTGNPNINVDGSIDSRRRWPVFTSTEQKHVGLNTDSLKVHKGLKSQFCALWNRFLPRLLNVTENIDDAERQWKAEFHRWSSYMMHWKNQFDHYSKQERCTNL
# Aβ (1–42) [3] = biological target: T1, Aβ (1–42); assay: Inhibition of Aβ (1–42) self-induced aggregation (Thioflavin T assay); settings: read-out: Aβ (1–42) aggregation inhibition (%)
# human AChE = biological target: T4, human AChE (Homo sapiens, UniProt P22303); assay: biochemical; settings: means ± SD of three experiments; read-out: IC50 hAChE
# T4 construct: Acetylcholinesterase (E.C. 3.1.1.7) from electric eel and human erythrocytes; purchased Sigma-Aldrich (St. Louis, MO); host or cells: human erythrocytes
# T4 sequence (P22303 other isoform, or with tags, fused parts or gaps): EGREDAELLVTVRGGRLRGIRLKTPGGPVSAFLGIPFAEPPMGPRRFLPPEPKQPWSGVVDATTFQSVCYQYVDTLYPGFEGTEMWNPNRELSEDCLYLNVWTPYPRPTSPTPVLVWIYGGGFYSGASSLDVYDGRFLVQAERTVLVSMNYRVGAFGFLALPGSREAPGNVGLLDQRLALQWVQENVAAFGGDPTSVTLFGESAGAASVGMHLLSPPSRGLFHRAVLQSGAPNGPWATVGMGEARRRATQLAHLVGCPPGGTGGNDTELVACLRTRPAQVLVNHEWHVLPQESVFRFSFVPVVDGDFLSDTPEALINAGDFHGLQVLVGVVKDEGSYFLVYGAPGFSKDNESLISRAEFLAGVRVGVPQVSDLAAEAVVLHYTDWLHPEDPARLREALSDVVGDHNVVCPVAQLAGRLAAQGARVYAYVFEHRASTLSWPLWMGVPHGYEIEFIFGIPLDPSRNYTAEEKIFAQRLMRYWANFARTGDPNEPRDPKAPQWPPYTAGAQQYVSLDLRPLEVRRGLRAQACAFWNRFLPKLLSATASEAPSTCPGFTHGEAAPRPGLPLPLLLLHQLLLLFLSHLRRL
# in vitro = assay: in vitro; parameters: Papp at 16 h: dose or concentration left out as unconfirmed; settings: PAMPA
# Experimental: Commercial drugs were purchased from Sigma (St. Louis, MO) and Alfa Aesar (Haverhill, MA). The porcine brain lipid (PBL) was obtained from Avanti Polar Lipids (Alabaster, AL). The donor microplate (PVDF membrane, pore size […]) and the acceptor microplate were both from Millipore (Darmstadt, Germany). The 96-well UV plate (COSTAR^@) was from Corning Incorporated (Harrodsburg, KY). The acceptor 96-well microplate was filled with 300 μL of PBS/EtOH (7:3), and the filter membrane was impregnated with 4 μL of PBL in dodecane (20 mg/mL). […] The […] was carefully placed on the donor plate to form a sandwich, which was left undisturbed for 16 h at 25 °C. After incubation, the donor plate was carefully removed and the concentration of compound in the acceptor wells was determined using an UV plate reader (Flexstation^@ 3). Every sample was analyzed at five wavelengths, in four wells, in at least three independent runs, and the results are given as the mean ± SD. In each experiment, nine quality control standards of known BBB permeability were included to validate the analysis set.
# AChE = settings: cited from earlier work
# T1 sequence (P05067 672-713): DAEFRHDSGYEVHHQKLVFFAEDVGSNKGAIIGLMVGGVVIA
Compound,IC50 (AChE (from electric eel)),inhibition at 20 µM (Aβ (1–42) [3]),IC50 ([2]; IC50 eqBuChE),ABTS assay (trolox equiv),also measured
"Oc1c(I)cc(Cl)c2cccnc12 [CQ, Clioquinol, reference compound]",–,–,–,–,inhibition at 50 µM (Aβ (1–42) [1]): 60.2%
"O=C(O)/C=C/c1ccccc1 [Cinnamic acid, reference compound]",–,–,–,–,IC50 ([2]; read-out: IC50 eqBuChE): > 100000 nM
"O=C(C=Cc1ccccc1)Nc1cc[n+](Cc2ccccc2)cc1.[Br-] [Compound 5a, 1-Benzyl-4-cinnamamidopyridin-1-ium bromide]",54.1 ± 8.2 nM,46.3 ± 1.6%,6300 ± 600 nM,N^c (N means <0.05),–
"Cc1cccc(C[n+]2ccc(NC(=O)C=Cc3ccccc3)cc2)c1.[Br-] [Compound 5b, 4-Cinnamamido-1-(3-methylbenzyl) pyridin-1-ium bromide]",103 ± 9.6 nM,48.5 ± 1.8%,8100 ± 1300 nM,N (N means <0.05),–
"Cc1ccc(C[n+]2ccc(NC(=O)C=Cc3ccccc3)cc2)cc1.[Br-] [Compound 5c, 4-Cinnamamido-1-(4-methylbenzyl) pyridin-1-ium bromide]",1263.8 ± 1.2 nM,55.1 ± 1.5%,25000 ± 700 nM,N (N means <0.05),–
"O=C(C=Cc1ccccc1)Nc1cc[n+](Cc2cccc(F)c2)cc1.[Br-] [Compound 5d, 4-Cinnamamido-1-(3-fluorobenzyl) pyridin-1-ium bromide]",93.5 ± 7.7 nM,53.6 ± 2.3%,7400 ± 500 nM,N (N means <0.05),–
"O=C(C=Cc1ccccc1)Nc1cc[n+](Cc2ccc(F)cc2)cc1.[Br-] [Compound 5e, 4-Cinnamamido-1-(4-fluorobenzyl) pyridin-1-ium bromide]",90.8 ± 9.2 nM,52.8 ± 1.8%,10000 ± 400 nM,N (N means <0.05),–
"O=C(C=Cc1ccccc1)Nc1cc[n+](Cc2cccc(Br)c2)cc1.[Br-] [Compound 5f, 1-(3-Bromobenzyl)-4-cinnamamidopyridin-1-ium bromide]",154 ± 2.6 nM,48.8 ± 2.1%,2500 ± 300 nM,N (N means <0.05),–
"O=C(C=Cc1ccccc1)Nc1cc[n+](Cc2ccc(Br)cc2)cc1.[Br-] [Compound 5g, 1-(4-Bromobenzyl)-4-cinnamamidopyridin-1-ium bromide]",1451 ± 4.3 nM,57.2 ± 1.1%,2100 ± 800 nM,N (N means <0.05),–
"COc1ccc(/C=C/C(=O)Nc2cc[n+](Cc3ccccc3)cc2)cc1OC.[Br-] [Compound 5h, (E)-1-benzyl-4-(3-(3,4-dimethoxyphenyl)acrylamido) pyridin-1-ium bromide]",135 ± 4.8 nM,55.7 ± 3.2%,4500 ± 700 nM,N (N means <0.05),–
"COc1ccc(/C=C/C(=O)Nc2cc[n+](Cc3cccc(C)c3)cc2)cc1OC.[Br-] [Compound 5i, (E)-4-(3-(3,4-dimethoxyphenyl)acrylamido)-1-(3-methylbenzyl) pyridin-1-ium bromide]",–,53.9 ± 0.9%,2700 ± 800 nM,N (N means <0.05),IC50 (human AChE): 43.7 ± 0.5 nM
"COc1ccc(/C=C/C(=O)Nc2cc[n+](Cc3ccc(C)cc3)cc2)cc1OC.[Br-] [Compound 5j, (E)-4-(3-(3,4-dimethoxyphenyl)acrylamido)-1-(4-methylbenzyl) pyridin-1-ium bromide]",90.7 ± 3.2 nM,63.4 ± 2.8%,3800 ± 900 nM,N (N means <0.05),IC50 (human AChE): 96.5 ± 2.8 nM
"COc1ccc(/C=C/C(=O)Nc2cc[n+](Cc3cccc(F)c3)cc2)cc1OC.[Br-] [Compound 5k, (E)-4-(3-(3,4-dimethoxyphenyl)acrylamido)-1-(3-fluorobenzyl) pyridin-1-ium bromide]",20.6 ± 1 nM,65.6 ± 2.3%,3100 ± 500 nM,N (N means <0.05),IC50 (human AChE): 19.2 ± 1.6 nM
"COc1ccc(/C=C/C(=O)Nc2cc[n+](Cc3cccc(Br)c3)cc2)cc1OC.[Br-] [Compound 5m, (E)-1-(3-bromobenzyl)-4-(3-(3,4-dimethoxyphenyl)acrylamido) pyridin-1-ium bromide]",92.6 ± 9 nM,62.8 ± 1.4%,2500 ± 600 nM,N (N means <0.05),IC50 (human AChE): 79.4 ± 1.5 nM
"COc1ccc(/C=C/C(=O)Nc2cc[n+](Cc3ccc(Br)cc3)cc2)cc1OC.[Br-] [Compound 5n, (E)-1-(4-bromobenzyl)-4-(3-(3,4-dimethoxyphenyl)acrylamido) pyridin-1-ium bromide]",50.3 ± 8.3 nM,66.3 ± 2.9%,1900 ± 500 nM,N (N means <0.05),Times more potent against BuChE than donepezil ([2]; eqBuChE IC50 compared with donepezil): 2.3 times; IC50 (human AChE): 51.1 ± 4.8 nM
"COc1cc(/C=C/C(=O)CC(=O)/C=C/c2ccc(O)c(OC)c2)ccc1O [Curcumin, reference compound]",–,54.6 ± 2.6%,–,–,–
"CC(=O)[C@H]1CC[C@H]2[C@@H]3CCC4=CC(=O)CC[C@]4(C)[C@H]3CC[C@]12C [Progesterone, reference compound]",–,–,–,–,Papp at 16 h (in vitro): 5.34 ×10⁻⁶ cm/s
[Br-].c1ccc(C[n+]2ccccc2)cc1 [benzyl pyridinium bromide],–,–,–,–,AChE inhibition (AChE): micromolar range
